Data published in US12678423B2, “Therapeutic agent for amyotrophic lateral sclerosis and composition for treatment” (KEIO UNIVERSITY, priority 2016, dated 2026).

How the values were obtained:
Type in all cases: cell-based, human
[1] = tested on: motor neurons induced to differentiate from iPS cells derived from SALS patients; assay: CV caspase 3-positive ratio, sporadic ALS model (Example III-2); conditions: final concentration 1 μM, days 35 to 40, measured on day 40, FIG. 11
Excerpt: In the same manner as in Example I-1, iPS cells derived from sporadic ALS (may be referred to below as “SALS”) patients were differentiated into motor neurons. All the iPS cells used were derived from dermal fibroblasts. Below, each differentiated motor neuron is identified by the patient number from whom the neuron was derived.
In the same manner as in Example II-1, iPS cells derived from sporadic ALS (SALS) patients were induced to differentiate into motor neurons, and then ropinirole with a final concentration of 1 μM was added to the medium. More specifically, for the period of days 35 to 40 from the start of differentiation induction, ropinirole having a final concentration of 1 μM was added to the medium. In addition, a group for which ropinirole was not added to the medium was prepared as a control. In addition, for comparison, iPS cells derived from healthy subjects were differentiated into motor neurons in the same manner as in Example I-1. No ropinirole was added to the medium of these motor neurons. As the iPS cells derived from a healthy subject, the same cells as used in Example I-1 were used.
Subsequently, on day 40 from the start of differentiation induction, the ratio of CV caspase 3-positive neurons was measured for each motor neuron in the same manner as in Example I-3.
FIG. 11 is a graph showing the measurement results of the ratio of CV caspase 3-positive neurons. […]

[2] = tested on: motor neurons induced to differentiate from iPS cells derived from ALS patients (TDP-43-ALS) having a mutation in TDP-43; assay: Neurite length, TDP-43-ALS motor neurons (screening, Example I-8)
Procedure: For each differentiation-induced motor neuron in Example I-1, the changes over time in the neurite length were measured. A Bio station CT (Nikon Corp.) was used to measure the neurite length over time. FIG. 1 is a graph showing measurement results of changes over time in the neurite length. The vertical axis represents neurite length (relative value), and the horizontal axis represents the number of days of culturing from the start of differentiation induction.
(§1) Using the differentiation-induced motor neurons in Example I-1, drugs which cause the ALS phenotype to be restored were screened from existing drug libraries with the neurite length, ectopic localization of FUS protein, stress granule formation, LDH leakage ratio, CV-caspase 3-positive ratio, phosphorylated TDP-43 protein inclusion formation, and the like as indices.
(§2) As a result of the screening, ropinirole was found as a promising therapeutic agent for ALS. Tables 5 and 6 show the improvement ratio (%) in the ALS phenotype due to adding ropinirole to the medium. Here, ropinirole was added to the medium on days 35 to 40 from the start of the differentiation induction of each iPS cell. Here, it is assumed that days 35 to 40 from the start of differentiation induction correspond to the early stage of the ALS disease.
(§3) The improvement ratio (%) of the ALS phenotype was calculated by Equation (1).
(§4) [formula] [In Equation (1), A represents a measurement value of motor neurons induced to differentiate from iPS cells derived from ALS patients in the absence of ropinirole, and B represents a measurement value of motor neurons induced to differentiate from iPS cells derived from ALS patients in the presence of ropinirole, and C represents a measurement value of motor neurons induced to differentiate from iPS cells derived from healthy subjects in the absence of ropinirole.]
(§5) Subsequently, in the same manner as above, the efficacy in cases of administering lower concentrations of ropinirole was evaluated.
(§6) Each drug was added to the medium at a final concentration of 10 μM.

[3] = tested on: motor neurons induced to differentiate from iPS cells derived from ALS patients (TDP-43-ALS) having a mutation in TDP-43; assay: LDH leakage ratio, TDP-43-ALS motor neurons
Procedure: The leakage amount of LDH into the medium is an indicator of cytotoxicity. For measurement of the LDH leakage ratio, a commercially available kit (model “LDH Cytotoxicity Detection Kit”, Takara Bio Inc.) was used.
Here, ropinirole was added to the medium on days 35 to 40 from the start of the differentiation induction of each iPS cell. Here, it is assumed that days 35 to 40 from the start of differentiation induction correspond to the early stage of the ALS disease.
as §3, §4, §5, §6

[4] = tested on: motor neurons induced to differentiate from iPS cells derived from ALS patients (TDP-43-ALS) having a mutation in TDP-43; assay: Phosphorylated TDP-43 protein inclusion formation, TDP-43-ALS motor neurons
Excerpt: Therefore, on day 40 from the start of differentiation induction, each differentiation-induced motor neuron in Example I-1 was immunostained and the formation of phosphorylated TDP-43 protein inclusions was examined.
as §1, §2, §3, §4, §5, §6

[5] = tested on: motor neurons induced to differentiate from iPS cells derived from ALS patients (TDP-43-ALS) having a mutation in TDP-43; assay: Neurite length in late stage ALS disease, TDP-43-ALS (Example I-9); conditions: final concentration 1 μM, added days 50 to 62 from start of differentiation induction, FIG. 14
Procedure: The efficacy of ropinirole was evaluated in the same manner as in Example I-8, except that the timing of adding ropinirole was changed to days 50 to 62 from the start of the differentiation induction of each iPS cell. It is assumed that days 50 to 62 after the start of induction of differentiation correspond to the late stage of the ALS disease.
Specifically, ropinirole was added to a medium of motor neurons induced to differentiate from iPS cells derived from ALS patients (FUS-ALS) having a mutation in FUS and motor neurons induced to differentiate from iPS cells derived from ALS patients (TDP-43-ALS) having a mutation in TDP-43 and the changes over time in the neurite length were measured. The measurement of neurite length was carried out in the same manner as in Example I-2. Ropinirole was added to the medium at a final concentration of 1 μM.
FIG. 14(a) is a graph showing the results of measurement of the changes over time in the neurite length of each motor neuron. In FIG. 14(a), the vertical axis represents the neurite length (relative value), the horizontal axis represents the number of days of culturing from the start of differentiation induction, and “+ROPI” represents the result of adding ropinirole to the medium. In addition, FIG. 14(b) is a graph enlarging the boxed portion of the graph of FIG. 14(a). […]

[6] = final concentration 0.1 μM, added days 35 to 40
[7] = final concentration 1 μM, added days 35 to 40
[8] = final concentration 10 μM, added days 35 to 40

CCCN(CCC)CCc1cccc2c1CC(=O)N2 [Ropinirole, 4-(2-di-n-propylaminoethyl)-2(3H)-indole] was tested, and the “Ratio of CV caspase 3-positive neurons” value [1] was “significantly reduced”, the “Neurite length improvement ratio” value ([2]; final concentration 0.1 nM) was 12.1% and the “Neurite length improvement ratio” value ([2]; final concentration 1 nM) was 49.4%. For the same compound, the “Neurite length improvement ratio” value ([2]; final concentration 10 nM) was 52.3%, the “Neurite length improvement ratio” value [2, 6] was 50.4% and the “Neurite length improvement ratio” value [2, 7] was 75.3%. The “Neurite length improvement ratio” value [2, 8] was 77.2%, the “LDH leakage ratio improvement ratio” value ([3]; final concentration 0.1 nM) was 10.2% and the “LDH leakage ratio improvement ratio” value ([3]; final concentration 1 nM) was 55.2%. For the same compound, the “LDH leakage ratio improvement ratio” value ([3]; final concentration 10 nM) was 56.6%, the “LDH leakage ratio improvement ratio” value [3, 6] was 58.3% and the “LDH leakage ratio improvement ratio” value [3, 7] was 78.1%. The “LDH leakage ratio improvement ratio” value [3, 8] was 82.4%, the “TDP-43 inclusion formation improvement ratio” value ([4]; final concentration 0.1 nM) was 15.3% and the “TDP-43 inclusion formation improvement ratio” value ([4]; final concentration 1 nM) was 55.3%. The “TDP-43 inclusion formation improvement ratio” value ([4]; final concentration 10 nM) was 60.3%, the “TDP-43 inclusion formation improvement ratio” value [4, 6] was 56.2% and the “TDP-43 inclusion formation improvement ratio” value [4, 7] was 69.2%. For the same compound, the “TDP-43 inclusion formation improvement ratio” value [4, 8] was 74.2% and the “Neurite length (changes over time), late stage” value [5] was “neuroprotective action (maintenance of neurite length)”.
